Experiments:
ΔNClpB = biological target: T1, ΔNClpB (Francisella tularensis, UniProt A0Q8N0)
T1 construct: gene clpB

[1] = biological target: F. novicida DnaK (F. novicida)

| Molecule | ATPase activity (ΔNClpB) | refolding of urea-denatured firefly luciferase with DnaK, DnaJ, GrpE and ATP [1] [%] |
| --- | --- | --- |
| Nc1ncnc2c1ncn2[C@@H]1O[C@H](COP(=O)(O)OP(=O)(O)OP(=O)(O)O)[C@@H](O)[C@H]1O [ATP] | ΔNClpB had a slightly increased basal ATPase activity in the absence of casein |  |
| F. novicida ClpB (wild-type) (natural protein) |  | 83 |
